US7524869B2, “Taxanes having a C10 ester substituent” (Florida State University Research Foundation, Inc., priority 2000, dated 2009)

System: HCT116
Assay: In vitro cytotoxicity measured by the cell colony formation assay
Format: cell-based
Conditions: HCT116 cells, 72 h drug incubation, colonies counted after 7 days; ID50 = drug concentration producing 50% inhibition of colony formation; read-out: IN VITRO ID 50 (nm) HCT116
Description: In Vitro Cytotoxicity Measured by the Cell Colony Formation Assay
Four hundred cells (HCT116) were plated in 60 mm Petri dishes containing 2.7 mL of medium (modified McCoy's 5a medium containing 10% fetal bovine serum and 100 units/mL penicillin and 100 µg/mL streptomycin). The cells were incubated in a CO2 incubator at 37° C. for 5 h for attachment to the bottom of Petri dishes. The compounds identified in Example 2 were made up fresh in medium at ten times the final concentration, and then 0.3 mL of this stock solution was added to the 2.7 mL of medium in the dish. The cells were then incubated with drugs for 72 h at 37° C. At the end of incubation the drug-containing media were decanted, the dishes were rinsed with 4 mL of Hank's Balance Salt Solution (HBSS), 5 mL of fresh medium was added, and the dishes were returned to the incubator for colony formation. The cell colonies were counted using a colony counter after incubation for 7 days.

`CC(=O)O[C@@]12CO[C@@H]1C[C@H](O)[C@@]1(C)C(=O)[C@H](OC(=O)C3CC3)C3=C(C)[C@@H](OC(=O)[C@H](O)[C@@H](NC(=O)OCC(C)C)C4CC4)C[C@@](O)([C@@H](OC(=O)c4ccccc4)C12)C3(C)C` (stereo partly shown) [Compound 5232] and `CC(=O)O[C@@]12CO[C@@H]1C[C@H](O)[C@@]1(C)C(=O)[C@H](OC(=O)C3CC3)C3=C(C)[C@@H](OC(=O)[C@H](O)[C@H](C=C(C)C)NC(=O)OCC(C)C)C[C@@](O)([C@@H](OC(=O)c4ccccc4)C12)C3(C)C` (stereo partly shown) [Compound 4720] cannot be ordered by IC50: less than 10 nM for the first, less than 10 nM for the second.

`C/C=C/C(=O)N[C@@H](c1ccoc1)[C@@H](O)C(=O)O[C@H]1C[C@@]2(O)[C@@H](OC(=O)c3ccccc3)C3[C@](C)(C(=O)[C@H](OC(=O)CCC)C(=C1C)C2(C)C)[C@@H](O)C[C@H]1OC[C@@]31OC(C)=O` (stereo partly shown) [Compound 4919] and `C/C=C/C(=O)N[C@@H](c1ccco1)[C@@H](O)C(=O)O[C@H]1C[C@@]2(O)[C@@H](OC(=O)c3ccccc3)C3[C@](C)(C(=O)[C@H](OC(=O)CCC)C(=C1C)C2(C)C)[C@@H](O)C[C@H]1OC[C@@]31OC(C)=O` (stereo partly shown) [Compound 3994] cannot be ordered by IC50: less than 1 nM for the first, less than 1 nM for the second.

`CCC(=O)O[C@H]1C(=O)[C@@]2(C)C([C@H](OC(=O)c3ccccc3)[C@]3(O)C[C@H](OC(=O)[C@H](O)[C@@H](NC(=O)OC(C)(C)C)C4CCC4)C(C)=C1C3(C)C)[C@]1(OC(C)=O)CO[C@@H]1C[C@@H]2O` (stereo partly shown) [Compound 0596] and `CCC(=O)O[C@H]1C(=O)[C@@]2(C)C([C@H](OC(=O)c3ccccc3)[C@]3(O)C[C@H](OC(=O)[C@H](O)[C@@H](NC(=O)OC(C)(C)C)C4CC4)C(C)=C1C3(C)C)[C@]1(OC(C)=O)CO[C@@H]1C[C@@H]2O` (stereo partly shown) [Compound 0578] cannot be ordered by IC50: less than 10 nM for the first, less than 1 nM for the second.

`CCCC(=O)O[C@H]1C(=O)[C@@]2(C)C([C@H](OC(=O)c3ccccc3)[C@]3(O)C[C@H](OC(=O)[C@H](O)[C@@H](NC(=O)OCC(C)C)c4ccoc4)C(C)=C1C3(C)C)[C@]1(OC(C)=O)CO[C@@H]1C[C@@H]2O` (stereo partly shown) [Compound 4704] and `CCCC(=O)O[C@H]1C(=O)[C@@]2(C)C([C@H](OC(=O)c3ccccc3)[C@]3(O)C[C@H](OC(=O)[C@H](O)[C@@H](NC(=O)OCC(C)C)c4cccs4)C(C)=C1C3(C)C)[C@]1(OC(C)=O)CO[C@@H]1C[C@@H]2O` (stereo partly shown) [Compound 3265] cannot be ordered by IC50: less than 10 nM for the first, less than 10 nM for the second.

`C/C=C/C(=O)N[C@@H](c1ccco1)[C@@H](O)C(=O)O[C@H]1C[C@@]2(O)[C@@H](OC(=O)c3ccccc3)C3[C@](C)(C(=O)[C@H](OC(=O)C4CC4)C(=C1C)C2(C)C)[C@@H](O)C[C@H]1OC[C@@]31OC(C)=O` (stereo partly shown) [Compound 3971] and `CCOC(=O)N[C@@H](c1ccco1)[C@@H](O)C(=O)O[C@H]1C[C@@]2(O)[C@@H](OC(=O)c3ccccc3)C3[C@](C)(C(=O)[C@H](OC(=O)C4CC4)C(=C1C)C2(C)C)[C@@H](O)C[C@H]1OC[C@@]31OC(C)=O` (stereo partly shown) [Compound 3677] cannot be ordered by IC50: less than 1 nM for the first, less than 1 nM for the second.

`CCCC(=O)O[C@H]1C(=O)[C@@]2(C)C([C@H](OC(=O)c3ccccc3)[C@]3(O)C[C@H](OC(=O)[C@H](O)[C@@H](NC(=O)c4ccccc4)C4CC4)C(C)=C1C3(C)C)[C@]1(OC(C)=O)CO[C@@H]1C[C@@H]2O` (stereo partly shown) [Compound 3482] and `CCC(=O)O[C@H]1C(=O)[C@@]2(C)C([C@H](OC(=O)c3ccccc3)[C@]3(O)C[C@H](OC(=O)[C@H](O)[C@@H](NC(=O)c4ccccc4)C4CCC4)C(C)=C1C3(C)C)[C@]1(OC(C)=O)CO[C@@H]1C[C@@H]2O` (stereo partly shown) [Compound 0720] cannot be ordered by IC50: less than 1 nM for the first, less than 10 nM for the second.

`CC(=O)OC12COC1CC(O)C1(C)C(=O)C(OC(=O)c3ccco3)C3=C(C)C(OC(=O)C(O)C(NC(=O)OC(C)(C)C)c4ccco4)CC(O)(C(OC(=O)c4ccccc4)C21)C3(C)C` (stereo not shown) [Compound 2142] and `CC(=O)OC12COC1CC(O)C1(C)C(=O)C(OC(=O)c3ccco3)C3=C(C)C(OC(=O)C(O)C(NC(=O)OC(C)(C)C)c4ccsc4)CC(O)(C(OC(=O)c4ccccc4)C21)C3(C)C` (stereo not shown) [Compound 2173] cannot be ordered by IC50: less than 1 nM for the first, less than 1 nM for the second.

`CCC(=O)O[C@H]1C(=O)[C@@]2(C)C([C@H](OC(=O)c3ccccc3)[C@]3(O)C[C@H](OC(=O)[C@H](O)[C@@H](NC(=O)OC(C)C)c4cccs4)C(C)=C1C3(C)C)[C@]1(OC(C)=O)CO[C@@H]1C[C@@H]2O` (stereo partly shown) [Compound 3361] and `CCC(=O)O[C@H]1C(=O)[C@@]2(C)C([C@H](OC(=O)c3ccccc3)[C@]3(O)C[C@H](OC(=O)[C@H](O)[C@@H](NC(=O)OCC(C)C)c4cccs4)C(C)=C1C3(C)C)[C@]1(OC(C)=O)CO[C@@H]1C[C@@H]2O` (stereo partly shown) [Compound 3163] cannot be ordered by IC50: less than 1 nM for the first, less than 1 nM for the second.

`CC(=O)O[C@@]12CO[C@@H]1C[C@H](O)[C@@]1(C)C(=O)[C@H](OC(=O)C=C(C)C)C3=C(C)[C@@H](OC(=O)[C@H](O)[C@@H](NC(=O)OC(C)(C)C)c4ccccn4)C[C@@](O)([C@@H](OC(=O)c4ccccc4)C12)C3(C)C` (stereo partly shown) [Compound 2464] and `CC(=O)OC12COC1CC(O)C1(C)C(=O)C(OC(=O)c3ccco3)C3=C(C)C(OC(=O)C(O)C(NC(=O)OC(C)(C)C)c4ccccn4)CC(O)(C(OC(=O)c4ccccc4)C21)C3(C)C` (stereo not shown) [Compound 2111] cannot be ordered by IC50: less than 1 nM for the first, less than 1 nM for the second.

`CC(=O)O[C@@]12CO[C@@H]1C[C@H](O)[C@@]1(C)C(=O)[C@H](OC(=O)C3CC3)C3=C(C)[C@@H](OC(=O)[C@H](O)[C@H](C=C(C)C)NC(=O)c4ccccc4)C[C@@](O)([C@@H](OC(=O)c4ccccc4)C12)C3(C)C` (stereo partly shown) [Compound 0890] and `CC(=O)O[C@@]12CO[C@@H]1C[C@H](O)[C@@]1(C)C(=O)[C@H](OC(=O)C3CC3)C3=C(C)[C@@H](OC(=O)[C@H](O)[C@@H](NC(=O)c4ccccc4)c4ccccn4)C[C@@](O)([C@@H](OC(=O)c4ccccc4)C12)C3(C)C` (stereo partly shown) [Compound 2844] cannot be ordered by IC50: less than 1 nM for the first, less than 10 nM for the second.

`CC(=O)OC12COC1CC(O)C1(C)C(=O)C(OC(=O)c3ccco3)C3=C(C)C(OC(=O)C(O)C(NC(=O)OC(C)(C)C)c4cccnc4)CC(O)(C(OC(=O)c4ccccc4)C21)C3(C)C` (stereo not shown) [Compound 2124] and `CC(=O)OC12COC1CC(O)C1(C)C(=O)C(OC(=O)c3ccco3)C3=C(C)C(OC(=O)C(O)C(NC(=O)OC(C)(C)C)c4ccncc4)CC(O)(C(OC(=O)c4ccccc4)C21)C3(C)C` (stereo not shown) [Compound 2132] cannot be ordered by IC50: less than 10 nM for the first, less than 1 nM for the second.

`C/C=C/C(=O)O[C@H]1C(=O)[C@@]2(C)C([C@H](OC(=O)c3ccccc3)[C@]3(O)C[C@H](OC(=O)[C@H](O)[C@@H](NC(=O)OC(C)(C)C)c4cccnc4)C(C)=C1C3(C)C)[C@]1(OC(C)=O)CO[C@@H]1C[C@@H]2O` (stereo partly shown) [Compound 2353] and `CCC(=O)O[C@H]1C(=O)[C@@]2(C)C([C@H](OC(=O)c3ccccc3)[C@]3(O)C[C@H](OC(=O)[C@H](O)[C@@H](NC(=O)OC(C)(C)C)c4cccnc4)C(C)=C1C3(C)C)[C@]1(OC(C)=O)CO[C@@H]1C[C@@H]2O` (stereo partly shown) [Compound 0517] cannot be ordered by IC50: less than 10 nM for the first, less than 10 nM for the second.

`CC(=O)O[C@@]12CO[C@@H]1C[C@H](O)[C@@]1(C)C(=O)[C@H](OC(=O)C3CC3)C3=C(C)[C@@H](OC(=O)[C@H](O)[C@@H](NC(=O)C=C(C)C)c4cccs4)C[C@@](O)([C@@H](OC(=O)c4ccccc4)C12)C3(C)C` (stereo partly shown) [Compound 4329] and `CCOC(=O)N[C@@H](c1cccs1)[C@@H](O)C(=O)O[C@H]1C[C@@]2(O)[C@@H](OC(=O)c3ccccc3)C3[C@](C)(C(=O)[C@H](OC(=O)CC)C(=C1C)C2(C)C)[C@@H](O)C[C@H]1OC[C@@]31OC(C)=O` (stereo partly shown) [Compound 3370] cannot be ordered by IC50: less than 1 nM for the first, less than 1 nM for the second.

`CCC(=O)O[C@H]1C(=O)[C@@]2(C)C([C@H](OC(=O)c3ccccc3)[C@]3(O)C[C@H](OC(=O)[C@H](O)[C@@H](NC(=O)c4ccccc4)c4ccc([N+](=O)[O-])cc4)C(C)=C1C3(C)C)[C@]1(OC(C)=O)CO[C@@H]1C[C@@H]2O` (stereo partly shown) [Compound 0732] and `CCC(=O)O[C@H]1C(=O)[C@@]2(C)C([C@H](OC(=O)c3ccccc3)[C@]3(O)C[C@H](OC(=O)[C@H](O)[C@@H](NC(=O)c4ccccc4)c4ccncc4)C(C)=C1C3(C)C)[C@]1(OC(C)=O)CO[C@@H]1C[C@@H]2O` (stereo partly shown) [Compound 0659] cannot be ordered by IC50: less than 10 nM for the first, less than 1 nM for the second.

`CC(=O)O[C@@]12CO[C@@H]1C[C@H](O)[C@@]1(C)C(=O)[C@H](OC(=O)C=C(C)C)C3=C(C)[C@@H](OC(=O)[C@H](O)[C@H](C=C(C)C)NC(=O)OC(C)(C)C)C[C@@](O)([C@@H](OC(=O)c4ccccc4)C12)C3(C)C` (stereo partly shown) [Compound 2455] and `CC(=O)OC12COC1CC(O)C1(C)C(=O)C(OC(=O)C(C)C)C3=C(C)C(OC(=O)C(O)C(C=C(C)C)NC(=O)OC(C)(C)C)CC(O)(C(OC(=O)c4ccccc4)C21)C3(C)C` (stereo not shown) [Compound 2226] cannot be ordered by IC50: less than 10 nM for the first, less than 1 nM for the second.

`CCC(=O)O[C@H]1C(=O)[C@@]2(C)C([C@H](OC(=O)c3ccccc3)[C@]3(O)C[C@H](OC(=O)[C@H](O)[C@@H](NC(=O)c4ccccc4)c4ccsc4)C(C)=C1C3(C)C)[C@]1(OC(C)=O)CO[C@@H]1C[C@@H]2O` (stereo partly shown) [Compound 0691] and `CC(=O)O[C@@]12CO[C@@H]1C[C@H](O)[C@@]1(C)C(=O)[C@H](OC(=O)C3CC3)C3=C(C)[C@@H](OC(=O)[C@H](O)[C@@H](NC(=O)OCC(C)C)c4ccsc4)C[C@@](O)([C@@H](OC(=O)c4ccccc4)C12)C3(C)C` (stereo partly shown) [Compound 5011] cannot be ordered by IC50: less than 1 nM for the first, less than 10 nM for the second.

`CC(=O)O[C@@]12CO[C@@H]1C[C@H](O)[C@@]1(C)C(=O)[C@H](OC(=O)C(C)C)C3=C(C)[C@@H](OC(=O)[C@H](O)[C@@H](NC(=O)OC(C)(C)C)C4CCC4)C[C@@](O)([C@@H](OC(=O)c4ccccc4)C12)C3(C)C` (stereo partly shown) [Compound 2319] and `CC(=O)OC12COC1CC(O)C1(C)C(=O)C(OC(=O)c3cccs3)C3=C(C)C(OC(=O)C(O)C(NC(=O)OC(C)(C)C)c4ccccn4)CC(O)(C(OC(=O)c4ccccc4)C21)C3(C)C` (stereo not shown) [Compound 1883] cannot be ordered by IC50: less than 10 nM for the first, less than 10 nM for the second.
